Values after ≈ are worked out from the molar mass of the structure shown. Like-named read-outs stand apart in the source and are kept apart here.

The test system of assay [1] is Mycobacterium tuberculosis H37RV ATCC 9360. Description: MIC, M. tuberculosis H37RV, Kirschner medium. The assay is classed as cell-based. The settings on record: Mycobacterium tuberculosis, 168 h, 10% horse serum, 7 days, 37° C, read-out: MIC. As for the experimental part:
(§1) The minimum inhibitory concentration (MIC) of representative compounds of the invention was determined using two-fold dilution method in microtiter system. The media used were: Todd-Hewitt broth (Difco) for steptococci; Iso-Sensitest broth (Oxoid) for staphylococci and gram-negative bacteria. The final inoculum was about 10^4 cfμ/ml. […] For M. tuberculosis H37 RV the inoculum consisted of 0.5-1% of a 7-9 day culture in Dubos medium. The tests were carried out in Kirschner medium supplemented with 10% horse serum. Observations were made after 7-days incubation at 37° C.

Assay [2] concerns S. aureus TOUR L 165. Description: MIC, two-fold dilution microtiter, S. aureus TOUR L 165. The assay is classed as cell-based, Staphylococcus aureus. Conditions: Staphylococcus aureus, TOURL165, S. aureus TOUR L 165, read-out: MIC.
In a further assay the test system is S. faecalis ATCC 7080. Description: MIC, two-fold dilution microtiter, S. faecalis ATCC 7080. The assay is classed as cell-based. Conditions: Enterococcus faecalis, ATCC7080, 18-24 h, 37° C, read-out: MIC.
Assay [3] relates to Proteus vulgaris XI9H ATCC 881. Description: MIC, two-fold dilution microtiter, P. vulgaris. It is filed as cell-based. Conditions: Proteus vulgaris, ATCC881.
In assay [4] the test system is Escherichia coli SKF 12140. Description: MIC, two-fold dilution microtiter, E. coli SKF 12140. Conditions: Escherichia coli, SKF12140, Iso-Sensitest broth, 18-24 h, 37° C, read-out: MIC. The assay is classed as cell-based.
The test system of assay [5] is Staphylococcus aureus ATCC 6538. Description: MIC, two-fold dilution microtiter, S. aureus ATCC 6538. It is filed as cell-based. The settings on record: Staphylococcus aureus, ATCC6538; S. aureus ATCC 6538; Iso-Sensitest broth; 18-24 h, 37° C; read-out: MIC.
Another assay concerns S. pneumoniae UC 41. Description: MIC, two-fold dilution microtiter, S. pneumoniae UC 41. It is filed as cell-based. The settings on record: Streptococcus pneumoniae, UC41, Todd-Hewitt broth, 18-24 h, 37° C, read-out: MIC.
The subject of assay [6] is S. aureus tour L 165. Description: experimental septicemia in mice (S. aureus). It is filed as in vivo. The settings on record: Staphylococcus aureus, once daily for three days, survival on 10th day. The method, then:
The antimicrobial activity of the compounds of the invention is also confirmed in "in vivo" tests. The animals (groups of five mice) were infected by intraperitoneal injection of 16-hour broth culture of S. aureus tour L 165. Inocula were adjusted so that untreated animals died of septicemia within 48 hours. Animals were treated once daily for three days starting immediately after infection. On the 10th day the value for the ED50 in mg/kg/day was calculated by the method of […]-KARBER (Finney, D. J., Statistical method in biological assay, page 524. C. Griffin Ltd., London, 1952), on the basis of the percentage of surviving animals at each dose.

Assay [7] relates to Streptococcus pyogenes C203. Description: MIC, two-fold dilution microtiter, S. pyogenes C203. The assay is classed as cell-based. The settings on record: Streptococcus pyogenes, Todd-Hewitt broth, 18-24 h, 37° C, read-out: MIC. The method, then:
as §1

For assay [8], the system named is Pseudomonas aeruginosa ATCC 10145. Description: MIC, two-fold dilution microtiter, P. aeruginosa ATCC 10145. The assay is classed as cell-based. Conditions: Pseudomonas aeruginosa, ATCC10145.
In a further assay the test system is S. aureus TOUR L 1282. Description: MIC, two-fold dilution microtiter, rifampicin resistant S. aureus TOUR L 1282. The assay is classed as cell-based. The settings on record: Staphylococcus aureus, TOURL1282, rifampicin resistant strain.
The test system of assay [9] is Klebsiella pneumoniae ISM. Description: MIC, two-fold dilution microtiter, K. pneumoniae ISM. The assay is classed as cell-based. The settings on record: Klebsiella pneumoniae.
Setting [10] is: Iso-Sensitest broth, 18-24 h, 37° C.
The mark [11] stands for this setting: supplemented with 30% bovine serum.
[12] abbreviates: P. vulgaris XI9H ATCC 881, Iso-Sensitest broth, 18-24 h, 37° C, read-out: MIC.
The mark [13] stands for this setting: P. aeruginosa ATCC 10145, Iso-Sensitest broth, 18-24 h, 37° C, read-out: MIC.
[14] abbreviates: K. pneumoniae ISM, Iso-Sensitest broth, 18-24 h, 37° C, read-out: MIC.

Regarding `COC1C=COC2(C)Oc3c(C)c(O)c4c(O)c(c5sc(N6CCN(C)CC6)nc5c4c3C2=O)NC(=O)C(C)=CC=CC(C)C(O)C(C)C(O)C(C)C(OC(C)=O)C1C` (stereo not shown) [Example 3a, 2'-(4"-Methyl-1"-piperazinyl) rifamycin P], the MIC was 1 µg/mL (≈ 1.19 µM) in assay [1]; 0.004 µg/mL (≈ 0.00478 µM) in the assay with S. aureus TOUR L 165 [2] (setting [10]); 0.004 µg/mL (≈ 0.00478 µM) with S. aureus TOUR L 165 [2] (setting [11]); 2 µg/mL (≈ 2.39 µM) in the assay with S. faecalis ATCC 7080; 8 µg/mL (≈ 9.56 µM) in [3] (setting [12]); 16 µg/mL (≈ 19.1 µM) in [4]. The MIC in assay [5] worked out at 0.001 µg/mL (≈ 0.00119 µM); in the assay with S. pneumoniae UC 41, 0.032 µg/mL (≈ 0.0382 µM); in assay [7] it was 0.032 µg/mL (≈ 0.0382 µM); in [8] (setting [13]), 16 µg/mL (≈ 19.1 µM); in the assay on S. aureus TOUR L 1282 it was 32 µg/mL (≈ 38.2 µM); in [9] (setting [14]), 32 µg/mL (≈ 38.2 µM). For the same compound, the ED50 was 0.16 mg/kg in the assay on S. aureus tour L 165 [6] (TOURL165, 240 h, sc) and 0.36 mg/kg in the assay on S. aureus tour L 165 [6] (TOURL165, po, 240 h, os).
Regarding `COC1C=COC2(C)Oc3c(C)c(O)c4c(O)c(c5sc(N6CCOCC6)nc5c4c3C2=O)NC(=O)C(C)=CC=CC(C)C(O)C(C)C(O)C(C)C(OC(C)=O)C1C` (stereo not shown) [Example 1b, 2'-(4"-morpholinyl) rifamycin P], the MIC in assay [1] came out at 2 µg/mL (≈ 2.43 µM); with S. aureus TOUR L 165 [2] (setting [10]) it was 0.002 µg/mL (≈ 0.00243 µM); in the assay on S. aureus TOUR L 165 [2] (setting [11]), 0.008 µg/mL (≈ 0.00971 µM); with S. faecalis ATCC 7080 it was 1 µg/mL (≈ 1.21 µM); in [3] (setting [12]), 8 µg/mL (≈ 9.71 µM); in assay [4] it was 16 µg/mL (≈ 19.4 µM). Further, the MIC in assay [5] is 0.001 µg/mL (≈ 0.00121 µM); in the assay on S. pneumoniae UC 41, 0.016 µg/mL (≈ 0.0194 µM); in assay [7] it was 0.032 µg/mL (≈ 0.0388 µM); in [8] (setting [13]), 16 µg/mL (≈ 19.4 µM); against S. aureus TOUR L 1282, 64 µg/mL (≈ 77.7 µM); in assay [9] (setting [14]) it was 32 µg/mL (≈ 38.8 µM). Besides, the ED50 with S. aureus tour L 165 [6] (TOURL165, 240 h, sc) was found to be 0.21 mg/kg; in the assay on S. aureus tour L 165 [6] (TOURL165, po, 240 h, os), 0.21 mg/kg.
Consider `COc1ccc(N2CCN(c3nc4c(s3)c3c(O)c5c(O)c(C)c6c(c54)C(=O)C(C)(OC=CC(OC)C(C)C(OC(C)=O)C(C)C(O)C(C)C(O)C(C)C=CC=C(C)C(=O)N3)O6)CC2)cc1` (stereo not shown) [Example 3e, 2'-[4"(4'"-methoxyphenyl)-1-piperazinyl]rifamycin P], for which the MIC in [1] stood at 0.25 µg/mL (≈ 0.269 µM); in the assay on S. aureus TOUR L 165 [2] (setting [10]), 0.064 µg/mL (≈ 0.0689 µM); with S. aureus TOUR L 165 [2] (setting [11]), 0.5 µg/mL (≈ 0.538 µM); in the assay with S. faecalis ATCC 7080, 4 µg/mL (≈ 4.31 µM); in assay [3] (setting [12]), 64 µg/mL (≈ 68.9 µM); in assay [4], 8 µg/mL (≈ 8.61 µM). Further, the MIC in [5] was 0.064 µg/mL (≈ 0.0689 µM); in the assay with S. pneumoniae UC 41, 0.064 µg/mL (≈ 0.0689 µM); in [7] it was 0.125 µg/mL (≈ 0.135 µM); in [8] (setting [13]) it was 8 µg/mL (≈ 8.61 µM); with S. aureus TOUR L 1282, above 128 µg/mL; in assay [9], above 128 µg/mL. The ED50 was found to be 0.63 mg/kg in the assay on S. aureus tour L 165 [6] (TOURL165, 240 h, sc) and 1.9 mg/kg with S. aureus tour L 165 [6] (TOURL165, po, 240 h, os).
On to `COC1C=COC2(C)Oc3c(C)c(O)c4c(O)c(c5sc(N6CCN(C)CC6)nc5c4c3C2=O)NC(=O)C(C)=CC=CC(C)C(O)C(C)C(O)C(C)C(O)C1C` (stereo not shown) [Example 3b, 25-Desacetyl-2'-(4"-methyl-1-piperazinyl) rifamycin P], for which the MIC was found to be 1 µg/mL (≈ 1.26 µM) in assay [1]; 0.008 µg/mL (≈ 0.0101 µM) in the assay with S. aureus TOUR L 165 [2] (setting [10]); 0.016 µg/mL (≈ 0.0201 µM) with S. aureus TOUR L 165 [2] (setting [11]); 1 µg/mL (≈ 1.26 µM) in the assay on S. faecalis ATCC 7080; 8 µg/mL (≈ 10.1 µM) in [3] (setting [12]); 8 µg/mL (≈ 10.1 µM) in assay [4]. Besides, the MIC in [5] was 0.008 µg/mL (≈ 0.0101 µM); in the assay with S. pneumoniae UC 41 it was 0.063 µg/mL (≈ 0.0792 µM); in [7], 0.063 µg/mL (≈ 0.0792 µM); in assay [8] (setting [13]), 8 µg/mL (≈ 10.1 µM); with S. aureus TOUR L 1282 it was above 128 µg/mL; in assay [9] (setting [14]), 16 µg/mL (≈ 20.1 µM). In addition, the ED50 in the assay on S. aureus tour L 165 [6] (TOURL165, 240 h, sc) was found to be 10 mg/kg; in the assay on S. aureus tour L 165 [6] (TOURL165, po, 240 h, os), 13 mg/kg.
As for `COC1C=COC2(C)Oc3c(C)c(O)c4c(O)c(c5sc(N6CCN(c7ccc(Cl)cc7)CC6)nc5c4c3C2=O)NC(=O)C(C)=CC=CC(C)C(O)C(C)C(O)C(C)C(OC(C)=O)C1C` (stereo not shown) [Example 3d, 2'-[4"(4'"-chlorophenyl)-1-piperazinyl]rifamycin P], the MIC is 1 µg/mL (≈ 1.07 µM) in assay [1]; 0.064 µg/mL (≈ 0.0686 µM) with S. aureus TOUR L 165 [2] (setting [10]); 0.25 µg/mL (≈ 0.268 µM) with S. aureus TOUR L 165 [2] (setting [11]); 2 µg/mL (≈ 2.14 µM) in the assay with S. faecalis ATCC 7080; above 128 µg/mL in [3]; 1 µg/mL (≈ 1.07 µM) in assay [4]. For the same compound, the MIC in [5] was 0.064 µg/mL (≈ 0.0686 µM); with S. pneumoniae UC 41, 0.125 µg/mL (≈ 0.134 µM); in [7], 0.064 µg/mL (≈ 0.0686 µM); in [8], 128 µg/mL (≈ 137 µM); with S. aureus TOUR L 1282 it was above 128 µg/mL; in [9] it was above 128 µg/mL. The ED50 was determined as 3.3 mg/kg in the assay on S. aureus tour L 165 [6] (TOURL165, 240 h, sc) and 3.3 mg/kg in the assay with S. aureus tour L 165 [6] (TOURL165, po, 240 h, os).

The term MIC denotes the least concentration at which growth counts as inhibited. The ED50 is the dose that gives a 50% effect, or the effect in half of the subjects. Low values mean greater potency, high ones weaker potency.

The values are drawn from patent US4880789A, “2'-Substituted-4-deoxy-thiazolo(5,4-c)-rifamycin SV derivatives” (Gruppo Lepetit S.P.A., priority 1985, dated 1989).
